One series deals with T cells. Description: Proliferation inhibition assay on T cells (PBMC, anti-CD3, IL-2). The series is classed as cell-based, human. To be noted: Homo sapiens, T-cell, IL-2 10 ng/mL. The text has this: The following in vitro assay is to determine the activity of the compounds of the present invention for inhibiting the proliferation of T cells.
The activity is represented by the IC50 value.
The general procedures of the assay are given as follows: first, the PBMC cell line (purchased from Shanghai Blood Center) was centrifuged, the supernatant was removed, and the cells counted. […] Then, the cells were washed 3 times, resuspended, diluted to 2×10^6/mL, and then mixed with recombinant human IL-2 (purchased from Peprotech, Catalog Number: 200-02) to a concentration of 10 ng/mL, and cultured for another 3 days. The cells were washed again 3 times, and diluted to 5×10^5/mL. 80 μL of the cells were seeded in each well of a 96-well cell culture plate. […] To he control wells, 10 μL culture medium were added. The plate was placed in an incubator. After incubating for 1 hr, negative control wells were mixed with 10 μL of culture medium, and the rest of the wells were mixed with IL-2 to a concentration of 10 ng/mL, and incubated continuously for 72 hours. […] IC50 values were calculated from the data of inhibition rates at various concentrations of the test compounds.

In series [1] the test system is human erythroid leukemia cell line TF-1. Description: Proliferation inhibition assay on TF-1 cells mediated by IL-4. To be noted: 10 ng/mL IL-4, 72 hours. The series is classed as cell-based. The text has this:
The following in vitro assay is to determine the activity of the compounds of the present invention for inhibiting the proliferation of human erythroid leukemia cell line TF-1.
The activity is represented by the IC50 value, which can not only reflect the activity of a test compound for inhibiting JAK2 and JAK3 kinase, but can also reflect the selectivity of a test compound for JAK2 and JAK3 kinase.
The general procedures of the assay are given as follows: first, the TF-1 cells (purchased from ATCC, Catalog number: CRL 2003) were seeded in a 96-well cell culture plate at a suitable cell concentration (8000 cells/mL medium), and 10 ng/mL IL-4 (Invitrogen, Catalog Number: PHC0044) were added to each well. Then 10× serial concentration gradient of test compounds solutions (10000, 1000, 100, 10, 1 and 0.1 nM) were prepared, and then the 10× compound solutions prepared above were added to the 96-well cell culture plate containing IL-4. After the cell plates were cultured continuously for 72 hours, the activity of the test compounds for inhibiting the cell proliferation was determined by using a Cell Counting Kit-8 (purchased from Dojindo, Catalog Number: CK04). IC50 values were calculated from the data of the inhibition rates at various concentrations of the test compounds.

Another series has as its target JAK3 kinase (Homo sapiens, UniProt P52333). Description: Assay for inhibiting JAK3 kinase (in vitro kinase assay). The series is classed as biochemical. To be noted: 20 μM ATP; read-out: IC50 (JAK3/Bio). The procedure: In vitro activity of compounds of the present invention for inhibiting JAK3 kinase was determined by the following method.
The next series has as its target JAK2 kinase (Homo sapiens, UniProt O60674). Description: Assay for inhibiting JAK2 kinase (in vitro kinase assay). The series is classed as biochemical. To be noted: 20 μM ATP; read-out: IC50 (JAK2/Bio). The procedure: In vitro activity of compounds of the present invention for inhibiting JAK2 kinase was determined by the following method.
In another series the target is JAK1 kinase (Homo sapiens, UniProt P23458). Description: Assay for inhibiting JAK1 kinase (in vitro kinase assay). The class given is biochemical. Conditions: 20 μM ATP; read-out: IC50 (JAK1/Bio). The procedure: In vitro activity of compounds of the present invention for inhibiting JAK1 kinase was determined by the following method.
IC50 values of test compounds was calculated from the data of the test compounds in inhibiting the activity of JAK1 kinase at different concentrations.

Series [2] in a line: Pharmacokinetics assay in rats, intragastric administration. The class given is in vivo, Sprague-Dawley (SD) rats. Conditions: SD rats, 10 mg/kg. The method, then: Rats were used as test animals. […] The pharmacokinetic behavior of the compounds of the present invention was studied and evaluated in rats.
56 Healthy adult Sprague-Dawley (SD) rats, half male and half female, purchased from SINO-BRITSH SIPPR/BK LAB.
The appropriate amount of test compounds were weighed and mixed with 1.0 mL of dimethyl sulfoxide to prepare a 1.0 mg/mL suspension.
After an overnight fast, SD rats were administered intragastrically at a dose of 10.0 mg/kg and an administration volume of 10 mL/kg.
The plasma samples were stored at −20° C. The rats were fed 2 hours after administration.
Content determination of the test compounds in rat plasma after intragastrically administering at different concentrations: 50 μL of rat plasmas taken at various time points after administration were mixed with 50 μL of internal standard solution and 100 μL of methanol and mixed for 3 minutes by a vortexer. The mixture was centrifuged for 10 minutes at 13,500 rpm. 10 μL of the supernatant was taken from the plasma sample and analyzed by LC-MS/MS.

SMILES strings stand for the structures. pIC50: −log10 of the molar value.

Sequence of JAK2 kinase (O60674 whole entry, looked up): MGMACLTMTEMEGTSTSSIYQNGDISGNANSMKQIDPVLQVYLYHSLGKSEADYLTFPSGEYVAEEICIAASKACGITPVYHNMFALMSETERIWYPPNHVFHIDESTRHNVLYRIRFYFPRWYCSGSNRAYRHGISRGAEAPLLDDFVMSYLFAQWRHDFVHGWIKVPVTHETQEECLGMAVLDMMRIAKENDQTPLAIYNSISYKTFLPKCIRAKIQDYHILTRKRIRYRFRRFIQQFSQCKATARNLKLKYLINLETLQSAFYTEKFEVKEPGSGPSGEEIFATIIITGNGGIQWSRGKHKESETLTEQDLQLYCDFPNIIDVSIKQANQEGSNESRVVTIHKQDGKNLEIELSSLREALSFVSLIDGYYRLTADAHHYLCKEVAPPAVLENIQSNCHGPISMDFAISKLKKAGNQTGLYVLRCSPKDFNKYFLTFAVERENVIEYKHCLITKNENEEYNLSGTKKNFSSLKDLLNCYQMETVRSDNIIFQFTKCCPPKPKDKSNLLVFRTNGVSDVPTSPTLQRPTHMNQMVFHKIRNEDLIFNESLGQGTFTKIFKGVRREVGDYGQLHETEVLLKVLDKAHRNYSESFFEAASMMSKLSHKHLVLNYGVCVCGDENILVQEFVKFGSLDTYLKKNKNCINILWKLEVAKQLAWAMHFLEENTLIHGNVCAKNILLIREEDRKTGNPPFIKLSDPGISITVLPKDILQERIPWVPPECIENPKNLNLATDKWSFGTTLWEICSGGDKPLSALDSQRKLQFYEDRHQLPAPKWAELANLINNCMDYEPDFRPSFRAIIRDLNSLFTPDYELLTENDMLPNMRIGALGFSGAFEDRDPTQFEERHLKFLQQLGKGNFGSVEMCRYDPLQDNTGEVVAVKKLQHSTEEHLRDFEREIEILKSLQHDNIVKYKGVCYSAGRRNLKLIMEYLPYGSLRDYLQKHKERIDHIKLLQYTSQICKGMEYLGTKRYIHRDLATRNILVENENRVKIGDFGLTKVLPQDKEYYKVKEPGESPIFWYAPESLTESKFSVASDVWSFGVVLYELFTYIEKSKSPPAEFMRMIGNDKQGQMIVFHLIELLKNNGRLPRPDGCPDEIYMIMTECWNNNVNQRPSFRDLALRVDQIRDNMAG
Sequence of JAK3 kinase (P52333 whole entry, looked up): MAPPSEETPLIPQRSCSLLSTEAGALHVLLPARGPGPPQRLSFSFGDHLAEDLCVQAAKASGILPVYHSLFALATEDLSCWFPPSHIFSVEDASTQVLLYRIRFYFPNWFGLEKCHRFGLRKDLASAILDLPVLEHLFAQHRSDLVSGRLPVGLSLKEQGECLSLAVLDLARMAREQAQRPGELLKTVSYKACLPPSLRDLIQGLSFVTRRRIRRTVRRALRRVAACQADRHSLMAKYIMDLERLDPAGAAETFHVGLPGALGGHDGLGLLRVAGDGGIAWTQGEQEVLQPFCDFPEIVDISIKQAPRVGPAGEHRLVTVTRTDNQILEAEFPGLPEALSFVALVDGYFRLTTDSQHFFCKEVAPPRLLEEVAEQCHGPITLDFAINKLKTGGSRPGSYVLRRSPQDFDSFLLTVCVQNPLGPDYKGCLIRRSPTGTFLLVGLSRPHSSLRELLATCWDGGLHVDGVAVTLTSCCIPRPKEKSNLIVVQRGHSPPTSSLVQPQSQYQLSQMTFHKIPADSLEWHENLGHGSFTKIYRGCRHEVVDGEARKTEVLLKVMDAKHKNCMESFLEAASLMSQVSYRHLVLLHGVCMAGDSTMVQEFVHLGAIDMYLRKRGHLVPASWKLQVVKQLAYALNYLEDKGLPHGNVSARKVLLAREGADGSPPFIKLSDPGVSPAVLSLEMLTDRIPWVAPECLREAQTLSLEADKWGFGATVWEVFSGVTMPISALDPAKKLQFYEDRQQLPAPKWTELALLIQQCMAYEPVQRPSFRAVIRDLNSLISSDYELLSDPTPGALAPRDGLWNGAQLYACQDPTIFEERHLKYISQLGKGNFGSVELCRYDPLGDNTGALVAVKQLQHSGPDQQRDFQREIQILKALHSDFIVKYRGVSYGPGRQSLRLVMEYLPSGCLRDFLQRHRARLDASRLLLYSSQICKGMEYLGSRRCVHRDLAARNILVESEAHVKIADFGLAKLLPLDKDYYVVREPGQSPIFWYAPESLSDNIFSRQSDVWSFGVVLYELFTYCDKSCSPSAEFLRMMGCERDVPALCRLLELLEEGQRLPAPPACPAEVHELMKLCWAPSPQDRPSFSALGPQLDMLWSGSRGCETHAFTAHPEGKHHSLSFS

On to `CN(c1ncnc2[nH]ccc12)[C@H]1C[C@@H]2CN(C(=O)Nc3nc(OCC(C)(C)O)ns3)C[C@@H]2C1` [Example 99], for which the pIC50 with T cells (72 h) is 7.27; in series [1] (TF-1, 72 h), 7.36; at JAK3 kinase it was 6.96; on JAK2 kinase, 8.30; at JAK1 kinase, 9.52.
For `COc1nsc(NC(=O)N2C[C@H]3C[C@H](N(C)c4ncnc5[nH]ccc45)C[C@H]3C2)n1` [Example 34, (3aR,5S,6aS)—N-(3-Methoxy-1,2,4-thiadiazol-5-yl)-5-(methyl(7H-pyrrolo[2,3-d]pyrimidin-4-yl)amino)hexahydrocyclopenta[c]pyrrole-2(1H)-carboxamide], the pIC50 with T cells (72 h) was 7.27; in series [1], 7.36. For the same compound, in series [2], the “Half-Life t½” value came to 2.10 ± 0.73 h.
The matching figures for `CCc1nsc(NC(=O)N2C[C@H]3C[C@H](N(C)c4ncnc5[nH]ccc45)C[C@H]3C2)n1` [Example 48, (3aR,5S,6aS)—N-(3-Ethyl-1,2,4-thiadiazol-5-yl)-5-(methyl(7H-pyrrolo[2,3-d]pyrimidin-4-yl)amino)hexahydrocyclopenta[c]pyrrole-2(1H)-carboxamide]: 7.64, 7.57 and 2.43 ± 0.75 h.
The matching figures for `C[C@H](O)C(=O)N1C[C@H]2C[C@H](N(C)c3ncnc4[nH]ccc34)C[C@H]2C1` [Example 17, (S)-2-Hydroxy-1-((3aR,5R,6aS)-5-(methyl(7H-pyrrolo[2,3-d]pyrimidin-4-yl)amino)hexahydrocyclopenta[c]pyrrol-2(1H)-yl)propan-1-one]: 7.54, 6.78 and 2.03 ± 0.82 h.
In the case of `CN(c1ccnc2[nH]ccc12)[C@H]1C[C@@H]2CN(C(=O)CO)C[C@@H]2C1` [Example 112, 2-hydroxy-1-((3aR,5S,6aS)-5-(methyl(1H-pyrrolo[2,3-b]pyridin-4-yl)amino)hexahydrocyclopenta[c]pyrrol-2(1H)-yl) ethanone], at JAK1 kinase, the pIC50 is 7.02.
As for `CN(c1ncnc2[nH]ccc12)[C@H]1C[C@@H]2CN(C(=O)CO)C[C@@H]2C1` [Example 6, 2-Hydroxy-1-((3aR,5S,6aS)-5-(methyl(7H-pyrrolo[2,3-d]pyrimidin-4-yl)amino)hexahydrocyclopenta[c]pyrrol-2(1H)-yl)ethanone], the pIC50 in the series with T cells (72 h) was 6.38; in series [1] (TF-1, 72 h), 6.34.
As to `C[C@@H](O)C(=O)N1C[C@H]2C[C@H](N(C)c3ncnc4[nH]ccc34)C[C@H]2C1` [Example 19, (R)-2-Hydroxy-1-((3aR,5S,6aS)-5-(methyl(7H-pyrrolo[2,3-d]pyrimidin-4-yl)amino)hexahydrocyclopenta[c]pyrrol-2(1H)-yl)propan-1-one], the values for the pIC50 (with T cells (72 h); in series [1]) were 6.14 and 6.15, respectively.
As for `CC(=O)N1C[C@H]2C[C@H](N(C)c3ncnc4[nH]ccc34)C[C@H]2C1` [Example 11, 1-((3aR,5S,6aS)-5-(Methyl(7H-pyrrolo[2,3-d]pyrimidin-4-yl)amino)hexahydrocyclopenta[c]pyrrol-2(1H)-yl)ethanone], the pIC50 was 6.15 with T cells (72 hours) and 6.29 in series [1].
With `CN(c1ncnc2[nH]cc(F)c12)[C@H]1C[C@@H]2CN(C(=O)CO)C[C@@H]2C1` [Example 128, 1-((3aR,5S,6aS)-5-((5-fluoro-7H-pyrrolo[2,3-d]pyrimidin-4-yl) (methyl)amino)hexahydrocyclopenta[c]pyrrol-2(1H)-yl)-2-hydroxyethanone], the pIC50 is 6.78 with T cells (72 h) and 6.60 in series [1] (TF-1, 72 h).
With `CN(c1ncnc2[nH]ccc12)[C@@H]1C[C@@H]2CN(C(=O)Nc3nncs3)C[C@@H]2C1` [Example 73, (3aR,5R,6aS)-5-(methyl(7H-pyrrolo[2,3-d]pyrimidin-4-yl)amino)-N-(1,3,4-thiadiazol-2-yl)hexahydrocyclopenta[c] pyrrole-2(1H)-carboxamide], the pIC50 was 6.29 with T cells (72 hours) and 6.32 in series [1].
The matching figures for `CN(c1ncnc2[nH]ccc12)C1C[C@@H]2CCN(C(=O)CO)C[C@@H]2C1` (stereo partly drawn) [Example 37, 2-Hydroxy-1-((4aS,7aR)-6-(methyl(7H-pyrrolo[2,3-d]pyrimidin-4-yl)amino)hexahydro-1H-cyclopenta[c]pyridin-2(3H,4H,4aH,5H,6H,7H,7aH)-yl)ethanone]: 6.34 and 6.91.
Consider `COc1nsc(NC(=O)N2C[C@H]3C[C@@H](N(C)c4ncnc5[nH]ccc45)C[C@H]3C2)n1` [Example 74, (3aR,5R,6aS)-N-(3-methoxy-1,2,4-thiadiazol-5-yl)-5-(methyl(7H-pyrrolo[2,3-d]pyrimidin-4-yl)amino)hexahydrocyclopenta [c]pyrrole-2(1H)-carboxamide], for which the pIC50 in the series on T cells (72 h) is 7.17; in series [1], 6.26.
In the case of `CN(c1ncnc2[nH]ccc12)[C@H]1C[C@@H]2CN(C(=O)Nc3nncs3)C[C@@H]2C1` [Example 86, (3aR,5S,6aS)-5-(methyl(7H-pyrrolo[2,3-d]pyrimidin-4-yl)amino)-N-(1,3,4-thiadiazol-2-yl)hexahydrocyclopenta[c] pyrrole-2(1H)-carboxamide], the pIC50 in the series with T cells (72 hours) was 6.89; in series [1], 6.16.

Values taken from patent US10428074B2, “Pyrrole heteroaryl ring derivative and method of use thereof” (Jiangsu Hengrui Medicine Co., Ltd., priority 2011, dated 2019).
